From PubChem BioAssay (NCI)
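The compound was tested at five concentrations on cells cultured in 96-well plates, with a 48-hour exposure period. The concentration for full growth arrest is given as TGI.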

Tests used:
Assay in all cases: inhibition of tumour cell growth, NCI panel, 48 h
HCT-15 colon = tested on: HCT-15 colon
OVCAR-3 ovarian = tested on: OVCAR-3 ovarian
NCI-H522 lung = tested on: NCI-H522 lung
NCI/ADR-RES ovarian = tested on: NCI/ADR-RES ovarian
RXF 393 renal = tested on: RXF 393 renal
CAKI-1 renal = tested on: CAKI-1 renal
RPMI-8226 leukemia = tested on: RPMI-8226 leukemia
KM12 colon = tested on: KM12 colon
EKVX NSCLC = tested on: EKVX NSCLC
SK-OV-3 ovarian = tested on: SK-OV-3 ovarian
SF-295 CNS = tested on: SF-295 CNS
OVCAR-4 ovarian = tested on: OVCAR-4 ovarian
SF-539 CNS = tested on: SF-539 CNS
SK-MEL-5 melanoma = tested on: SK-MEL-5 melanoma
HS 578T breast = tested on: HS 578T breast
U251 CNS = tested on: U251 CNS
HL-60(TB) leukemia = tested on: HL-60(TB) leukemia
UACC-62 melanoma = tested on: UACC-62 melanoma
TK-10 renal = tested on: TK-10 renal
K-562 leukemia = tested on: K-562 leukemia
ACHN renal = tested on: ACHN renal
UACC-257 melanoma = tested on: UACC-257 melanoma
MDA-N = tested on: MDA-N
MOLT-4 leukemia = tested on: MOLT-4 leukemia
SK-MEL-2 melanoma = tested on: SK-MEL-2 melanoma
HCT-116 colon = tested on: HCT-116 colon
MALME-3M melanoma = tested on: MALME-3M melanoma
OVCAR-5 ovarian = tested on: OVCAR-5 ovarian
HOP-92 NSCLC = tested on: HOP-92 NSCLC
A498 renal = tested on: A498 renal
NCI-H23 lung = tested on: NCI-H23 lung
SN12C renal = tested on: SN12C renal
DU-145 prostate = tested on: DU-145 prostate
BT-549 breast = tested on: BT-549 breast
CCRF-CEM leukemia = tested on: CCRF-CEM leukemia
LOX IMVI melanoma = tested on: LOX IMVI melanoma
SNB-19 CNS = tested on: SNB-19 CNS
COLO 205 colon = tested on: COLO 205 colon
SK-MEL-28 melanoma = tested on: SK-MEL-28 melanoma
HCC-2998 colon = tested on: HCC-2998 colon
SW-620 colon = tested on: SW-620 colon
NCI-H460 lung = tested on: NCI-H460 lung
SR leukemia = tested on: SR leukemia
MCF7 breast = tested on: MCF7 breast
T-47D breast = tested on: T-47D breast
PC-3 prostate = tested on: PC-3 prostate
MDA-MB-435 = tested on: MDA-MB-435
SF-268 CNS = tested on: SF-268 CNS
HT29 colon = tested on: HT29 colon
HOP-62 NSCLC = tested on: HOP-62 NSCLC
OVCAR-8 ovarian = tested on: OVCAR-8 ovarian
SNB-75 CNS = tested on: SNB-75 CNS
IGROV1 ovarian = tested on: IGROV1 ovarian
M14 melanoma = tested on: M14 melanoma
NCI-H226 lung = tested on: NCI-H226 lung
A549 NSCLC = tested on: A549 NSCLC
UO-31 renal = tested on: UO-31 renal
786-0 renal = tested on: 786-0 renal
MDA-MB-231 breast = tested on: MDA-MB-231 breast

## C[C@H]1C2Cc3cc(N)ccc3[C@@]1(C)CCN2CCc1ccccc1
HCT-15 colon
  TGI: > 100 µM
OVCAR-3 ovarian
  TGI: 92.6 µM
NCI-H522 lung
  TGI: 31.5 µM
NCI/ADR-RES ovarian
  TGI: > 100 µM
RXF 393 renal
  TGI: > 100 µM
CAKI-1 renal
  TGI: > 100 µM
RPMI-8226 leukemia
  TGI: > 100 µM
KM12 colon
  TGI: > 100 µM
EKVX NSCLC
  TGI: > 100 µM
SK-OV-3 ovarian
  TGI: > 100 µM
SF-295 CNS
  TGI: 98.8 µM
OVCAR-4 ovarian
  TGI: > 100 µM
SF-539 CNS
  TGI: > 100 µM
SK-MEL-5 melanoma
  TGI: 37.2 µM
HS 578T breast
  TGI: > 100 µM
U251 CNS
  TGI: > 100 µM
HL-60(TB) leukemia
  TGI: 87.7 µM
UACC-62 melanoma
  TGI: > 100 µM
TK-10 renal
  TGI: > 100 µM
K-562 leukemia
  TGI: > 100 µM
ACHN renal
  TGI: > 100 µM
UACC-257 melanoma
  TGI: > 100 µM
MDA-N
  TGI: > 100 µM
MOLT-4 leukemia
  TGI: > 100 µM
SK-MEL-2 melanoma
  TGI: > 100 µM
HCT-116 colon
  TGI: > 100 µM
MALME-3M melanoma
  TGI: 54 µM
OVCAR-5 ovarian
  TGI: > 100 µM
HOP-92 NSCLC
  TGI: 90.9 µM
A498 renal
  TGI: > 100 µM
NCI-H23 lung
  TGI: > 100 µM
SN12C renal
  TGI: > 100 µM
DU-145 prostate
  TGI: > 100 µM
BT-549 breast
  TGI: > 100 µM
CCRF-CEM leukemia
  TGI: > 100 µM
LOX IMVI melanoma
  TGI: 41.2 µM
SNB-19 CNS
  TGI: > 100 µM
COLO 205 colon
  TGI: 32.9 µM
SK-MEL-28 melanoma
  TGI: > 100 µM
HCC-2998 colon
  TGI: 21.7 µM
SW-620 colon
  TGI: > 100 µM
NCI-H460 lung
  TGI: > 100 µM
SR leukemia
  TGI: > 100 µM
MCF7 breast
  TGI: 94.1 µM
T-47D breast
  TGI: > 100 µM
PC-3 prostate
  TGI: 49.9 µM
MDA-MB-435
  TGI: > 100 µM
SF-268 CNS
  TGI: > 100 µM
HT29 colon
  TGI: > 100 µM
HOP-62 NSCLC
  TGI: > 100 µM
OVCAR-8 ovarian
  TGI: > 100 µM
SNB-75 CNS
  TGI: > 100 µM
IGROV1 ovarian
  TGI: > 100 µM
M14 melanoma
  TGI: 40 µM
NCI-H226 lung
  TGI: > 100 µM
A549 NSCLC
  TGI: > 100 µM
UO-31 renal
  TGI: > 100 µM
786-0 renal
  TGI: > 100 µM
MDA-MB-231 breast
  TGI: > 100 µM
